Measured values published in patent US20240398783A1, “Compounds and Pharmaceutical Compositions Comprising Inhibitors of Amyloid Peptide Interactions with Glycosaminoglycans, Methods of Treatment and Use Thereof” (Gismo Therapeutics, Inc., priority 2021, published 2024).
Where a name gives a salt, the structure may show the parent alone. Read-outs that look alike come from different tables or passages of the source.

Assays:
[1] = biological target: T1, Amyloid-beta(1-42) oligomer binding to heparin (HS-GAG) (Homo sapiens, UniProt P05067); assay: Inhibition of Amyloid-beta(1-42) oligomer binding to immobilized heparin-BSA (ELISA); design: species or system porcine; settings: for inhibition at 30 µM: read-out: Abeta42/Heparin Activity (% inhibition class); for IC50: co-incubation on heparin-BSA plates, read-out: Abeta42/Heparin Activity (IC-50)
T1 construct: Beta-amyloid (1-42) was purchased from rPeptide (Cat. No. A1163); purchased rPeptide A1163
Protocol: (§1) Porcine intestinal mucosa heparin conjugated to Bovine Serum Albumin (Heparin-BSA) was prepared as described (Najjam, S. et al. 1997, Cytokine 12, 1013-1022). Heparin is a sulfated HS-GAG and is commonly used as a HS-GAG in biochemical and binding assays (Lindahl, U. and Kjellen, L. (2013) ibid). Heparin-BSA at 0.01 mg/ml in Phosphate Buffered Saline (PBS; pH 7.4) was added to a 96 well polystyrene ELISA plate (NUNC Cat. No. 449824; 100 μl per well) and incubated Over Night (ON) at 4 degrees Celsius. For negative controls, ELISA plates were coated with BSA instead of Heparin-BSA, using the same procedure. Following the incubation, the plate was washed consecutively, by immersion, with de-ionized water and PBS (pH 7.4). The ELISA plate was then blocked with nonfat milk (2%, 200 μl per well) for 2 hours at Room Temperature (RT) with gentle shaking. Following blocking, the plate was washed with de-ionized water then PBS (pH 7.4). GBAPs were dissolved and diluted in PBS (pH 6.5, supplemented with 0.1% BSA) at desired concentrations, added to the ELISA plates containing immobilized Heparin-BSA (100 μl per well) and incubated for 2 hours at RT with gentle shaking. Following incubation, the plate was washed with de-ionized water and three times with PBS (pH 6.5) plus Tween. Bound GBAP was detected by a monoclonal antibody specific for that GBAP, followed by incubation with secondary antibody conjugated to horseradish peroxidase (HRP). Antibody was diluted in PBS (pH 6.5 supplemented with 1% BSA). Following each incubation with antibody, the plate was washed with de-ionized water and three times with PBS (pH 6.5) wash buffer containing 0.1% Tween. The peroxidase substrate chromogen, TMB (Dako Cat. No. S1599) was added (100 μl per well) to the ELISA plate and incubated at room temperature. After 5 minutes ELISA Stop Solution (hydrochloric acid 1N, sulfuric acid 3N) was added (100 μl per well) to stop the peroxidase catalyzed colorimetric reaction. The Optical Density of the samples was measured at 450 nm using an ELISA plate reader (BioTek Synergy H1). Following color development, the % inhibition compared to control (BSA-coated plates) was determined. IC-50s were calculated using GraphPad Prism software.
The assay was performed as described in Example 43, with the following modifications. Following to coating the plates with Heparin-BSA, plates were washed as described. The compounds were dissolved in DMSO at 10 mM final concentration and further diluted prior to assay. DMSO concentration in the screening well was up to 2%. Individual compounds were co-incubated with Beta-amyloid peptides on plates containing immobilized heparin. Beta-amyloid (1-42) was purchased from rPeptide (Cat. No. A1163) and used to prepare oligomers according to Stine et al., 2003 (J Biol Chem. 278(13):11612-22) as follows. 1,1,1,3,3,3-Hexafluoro-2-propanol- (HFIP; Sigma Cat. No. 105228)-treated Beta amyloid (1-42) was dissolved in dry DMSO (Sigma Cat. No. D2650) to 5 mM concentration. Dissolved Beta amyloid (1-42) was then diluted to 100 μM in ice-cold cell culture medium (phenol red-free Ham's F-12; Caisson Labs, Cat. No. HFL05), followed immediately by vortexing for 30 seconds, and incubating at 4 degrees Celsius for 24 h. Resulting Beta amyloid (1-42) oligomers were centrifuged at 12,000 rpm for 10 min at 4 degree Celsius to remove aggregates. Oligomers were then quickly frozen and kept in aliquots at −80 degrees Celsius. Beta-amyloid (1-40) from rPeptide (Cat No. A1153) was dissolved in DMSO, quickly frozen and kept in aliquots at −80 degrees Celsius. Beta-amyloid (1-42) oligomers or Beta-amyloid (1-40) diluted in PBS (pH 6.5, supplemented with BSA, 0.1%) were added to the ELISA plate (100 μl per well) and incubated for 2 hours at RT with gentle shaking. Following the incubation, the plate was washed with de-ionized water and three times with PBS (pH 6.5) plus Tween. […]

[2] = biological target: Tau binding to heparin (HS-GAG) (Homo sapiens, UniProt P10636); assay: Inhibition of Tau binding to immobilized heparin-BSA (ELISA); design: species or system porcine; settings: Tau, heparin-BSA
Protocol: as §1
The assay was performed as described in Example 43, with the following modifications. Following to coating the plates with Heparin-BSA, plates were washed as described. The compounds were dissolved in DMSO at 10 mM final concentration and further diluted prior to assay. DMSO concentration in the screening well was up to 2%. Individual compounds were co-incubated with Tau on plates containing immobilized heparin. Tau purchased from rPeptide (Cat. No. T1001) was dissolved in DMSO (Sigma Cat. No. D2650), quickly frozen and kept in aliquots at −80 degrees Celsius. Tau dissolved in PBS (pH 6.5, supplemented with BSA, 0.1%) was added to the ELISA plate (100 μl per well) and incubated for 2 hours at RT with gentle shaking. Following the incubation, the plate was washed with de-ionized water and three times with PBS (pH 6.5) plus Tween. Bound Tau was detected by anti-Tau Monoclonal Antibody D-8 (Santa Cruz Cat. No. sc-166060), followed by secondary anti-IgG antibody conjugated to HRP (R&D System, Cat. No. HAF007). Following to color development with TMB, as described in Example 43, the Optical Density of the samples was measured at 450 nm using an ELISA plate reader. Following color development, the % inhibition compared to control (no compound, DMSO control) for every compound was determined.
An example of inhibition curve is shown in FIG. 3 for Inhibitor Compounds 3 and 6. As described in Example 43, Heparin in the form of Heparin-BSA conjugate is used as a source of HS-GAG. For each compound IC-50 value in Tau—heparin-BSA binding assay is shown in […]. In some cases IC-50 was not measured and […] at 30 μM compound concentration is shown instead. […]

[3] = read-out: Tau/Heparin Activity (IC-50)

T1 sequence (P05067 672-713): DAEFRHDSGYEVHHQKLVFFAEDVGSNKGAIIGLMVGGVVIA
Chain of Tau binding to heparin (HS-GAG) (P10636 with tags, fused parts or gaps): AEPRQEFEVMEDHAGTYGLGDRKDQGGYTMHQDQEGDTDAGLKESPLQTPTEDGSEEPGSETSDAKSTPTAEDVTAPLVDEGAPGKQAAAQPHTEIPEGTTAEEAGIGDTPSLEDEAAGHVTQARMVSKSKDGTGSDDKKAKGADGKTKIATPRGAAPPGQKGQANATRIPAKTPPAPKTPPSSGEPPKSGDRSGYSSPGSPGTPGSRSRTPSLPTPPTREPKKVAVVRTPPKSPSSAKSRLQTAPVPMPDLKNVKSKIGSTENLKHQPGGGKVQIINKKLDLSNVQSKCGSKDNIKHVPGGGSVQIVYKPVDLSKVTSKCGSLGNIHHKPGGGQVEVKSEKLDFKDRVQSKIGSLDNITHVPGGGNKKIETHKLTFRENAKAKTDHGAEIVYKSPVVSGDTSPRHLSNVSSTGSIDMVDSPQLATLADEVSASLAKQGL

C/C(=N\Nc1ncnc2ccccc12)c1ccc(-n2cc(C)nc2C)nc1 [Compound 19, (E)-4-(2-(1-(6-(2,4-dimethyl-1H-imidazol-1-yl)pyridin-3-yl)ethylidene)hydrazineyl)quinazoline]
inhibition at 30 µM [1]: < 30%
IC50 ([2]; Tau/Heparin Activity (IC-50)): 46.6 µM

C/C(=N\Nc1nncc2cc(Cl)ccc12)c1ccc(-n2cc(C)nc2C)nc1 [Compound 24, (E)-6-chloro-1-(2-(1-(6-(2,4-dimethyl-1H-imidazol-1-yl)pyridin-3-yl)ethylidene)hydrazineyl)phthalazine]
IC50 ([1]; Abeta(1-42) oligomers): 16.9 µM
IC50 [2, 3]: 37.9 µM

CC(=NNc1ncnc2cc(Cl)ccc12)c1ccnc(-n2cnc(C)c2C)c1 [Compound 28, 7-chloro-4-(2-(1-(2-(4,5-dimethyl-1H-imidazol-1-yl)pyridin-4-yl)ethylidene)hydrazineyl)quinazoline]
IC50 ([1]; Abeta(1-42) oligomers): 12.9 µM
IC50 [2, 3]: 61.8 µM

Cc1ncn(-c2ccc(/C=N\Nc3ncnc4cc(Cl)ccc34)cn2)c1C [Compound 15, 7-chloro-4-(2-((6-(4,5-dimethyl-1H-imidazol-1-yl)pyridin-3-yl)methylene)hydrazineyl)quinazoline hydrochloride]
IC50 ([1]; Abeta(1-42) oligomers): 18.9 µM
IC50 ([2]; Tau/Heparin Activity (IC-50)): 67.9 µM

CN1CCN(Cc2ccc(/C=N/Nc3ccnc4cc(Cl)ccc34)cc2)CC1 [Compound 7, (E)-7-chloro-4-(2-(4-((4-methylpiperazin-1-yl)methyl)benzylidene)hydrazinyl)quinolone]
inhibition at 30 µM ([1]; 30 μM compound, Abeta(1-42) oligomers, heparin-BSA): < 30%
IC50 ([2]; Tau/Heparin Activity (IC-50)): 15.5 µM
